One series deals with T1, Toll-like receptor 9 (Homo sapiens, UniProt Q9NR96).
T1 sequence (Q9NR96 whole entry): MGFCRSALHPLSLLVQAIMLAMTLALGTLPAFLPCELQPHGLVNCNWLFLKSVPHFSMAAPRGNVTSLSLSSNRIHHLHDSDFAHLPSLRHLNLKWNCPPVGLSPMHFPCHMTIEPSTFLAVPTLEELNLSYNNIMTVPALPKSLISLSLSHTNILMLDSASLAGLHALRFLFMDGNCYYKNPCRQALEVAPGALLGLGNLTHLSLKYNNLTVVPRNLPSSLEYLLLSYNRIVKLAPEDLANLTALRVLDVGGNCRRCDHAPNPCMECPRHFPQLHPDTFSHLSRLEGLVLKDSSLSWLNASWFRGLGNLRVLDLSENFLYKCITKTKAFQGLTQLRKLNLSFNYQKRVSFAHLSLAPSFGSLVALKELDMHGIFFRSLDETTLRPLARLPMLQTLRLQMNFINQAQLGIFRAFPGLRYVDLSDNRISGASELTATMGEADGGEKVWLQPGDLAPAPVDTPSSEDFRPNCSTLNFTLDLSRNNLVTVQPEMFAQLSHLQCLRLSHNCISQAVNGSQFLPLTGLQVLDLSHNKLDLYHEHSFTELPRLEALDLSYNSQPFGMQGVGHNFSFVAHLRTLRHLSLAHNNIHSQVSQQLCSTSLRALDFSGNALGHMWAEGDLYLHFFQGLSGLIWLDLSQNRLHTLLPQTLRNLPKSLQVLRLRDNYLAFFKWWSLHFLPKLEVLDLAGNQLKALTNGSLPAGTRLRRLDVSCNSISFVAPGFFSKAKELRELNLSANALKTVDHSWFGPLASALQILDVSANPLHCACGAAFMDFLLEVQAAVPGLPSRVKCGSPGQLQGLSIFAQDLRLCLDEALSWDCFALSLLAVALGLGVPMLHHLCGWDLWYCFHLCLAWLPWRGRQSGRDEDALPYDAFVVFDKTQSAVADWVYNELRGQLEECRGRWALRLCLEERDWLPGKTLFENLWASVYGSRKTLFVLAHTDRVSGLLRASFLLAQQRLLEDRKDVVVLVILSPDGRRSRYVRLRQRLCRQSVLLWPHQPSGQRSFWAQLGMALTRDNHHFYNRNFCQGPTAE
Put plainly: Antagonist activity at TLR9 in human PBMC cells assessed as reduction in IFN alpha measured after 20 hrs by AlphaLISA assay. Type of series: cell-based.

A short description of series [1]: Metabolic stability in mouse liver microsomes assessed as intrinsic clearance. Type of series: ADME, Microsome. To be noted: read-out: CLH.
Series [2] is described as follows: MRT in mouse at 1 mg/ml, po or iv. To be noted: in vivo. Type of series: ADME, organism-based.
Series [3] deals with T2, Cytochrome P450 3A4 (Homo sapiens, UniProt P08684). Kind of series: Time dependent inhibition of CYP3A4 (unknown origin) assessed as Kobs. Type of series: ADME.
T2 sequence (P08684 whole entry): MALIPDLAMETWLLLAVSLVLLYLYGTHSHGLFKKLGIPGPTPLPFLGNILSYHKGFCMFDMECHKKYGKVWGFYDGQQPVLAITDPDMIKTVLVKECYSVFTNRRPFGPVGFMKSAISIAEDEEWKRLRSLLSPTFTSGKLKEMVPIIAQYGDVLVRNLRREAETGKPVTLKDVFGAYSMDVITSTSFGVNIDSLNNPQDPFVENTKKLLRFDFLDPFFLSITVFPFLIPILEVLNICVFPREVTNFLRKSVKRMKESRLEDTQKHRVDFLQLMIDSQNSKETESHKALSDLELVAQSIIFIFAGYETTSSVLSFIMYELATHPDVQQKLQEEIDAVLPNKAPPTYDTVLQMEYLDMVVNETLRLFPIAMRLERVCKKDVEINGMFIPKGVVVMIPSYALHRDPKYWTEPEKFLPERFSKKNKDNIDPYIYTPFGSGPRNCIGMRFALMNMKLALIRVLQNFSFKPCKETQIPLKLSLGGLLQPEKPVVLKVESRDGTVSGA
Series [4] is described as follows: AUC in mouse at 1 mg/ml, iv. More on the design: dose 1 mg/ml, route iv. To be noted: in vivo. Type of series: ADME.
Another series addresses T3, Toll-like receptor 8 (Homo sapiens, UniProt Q9NR97).
T3 sequence (Q9NR97 whole entry): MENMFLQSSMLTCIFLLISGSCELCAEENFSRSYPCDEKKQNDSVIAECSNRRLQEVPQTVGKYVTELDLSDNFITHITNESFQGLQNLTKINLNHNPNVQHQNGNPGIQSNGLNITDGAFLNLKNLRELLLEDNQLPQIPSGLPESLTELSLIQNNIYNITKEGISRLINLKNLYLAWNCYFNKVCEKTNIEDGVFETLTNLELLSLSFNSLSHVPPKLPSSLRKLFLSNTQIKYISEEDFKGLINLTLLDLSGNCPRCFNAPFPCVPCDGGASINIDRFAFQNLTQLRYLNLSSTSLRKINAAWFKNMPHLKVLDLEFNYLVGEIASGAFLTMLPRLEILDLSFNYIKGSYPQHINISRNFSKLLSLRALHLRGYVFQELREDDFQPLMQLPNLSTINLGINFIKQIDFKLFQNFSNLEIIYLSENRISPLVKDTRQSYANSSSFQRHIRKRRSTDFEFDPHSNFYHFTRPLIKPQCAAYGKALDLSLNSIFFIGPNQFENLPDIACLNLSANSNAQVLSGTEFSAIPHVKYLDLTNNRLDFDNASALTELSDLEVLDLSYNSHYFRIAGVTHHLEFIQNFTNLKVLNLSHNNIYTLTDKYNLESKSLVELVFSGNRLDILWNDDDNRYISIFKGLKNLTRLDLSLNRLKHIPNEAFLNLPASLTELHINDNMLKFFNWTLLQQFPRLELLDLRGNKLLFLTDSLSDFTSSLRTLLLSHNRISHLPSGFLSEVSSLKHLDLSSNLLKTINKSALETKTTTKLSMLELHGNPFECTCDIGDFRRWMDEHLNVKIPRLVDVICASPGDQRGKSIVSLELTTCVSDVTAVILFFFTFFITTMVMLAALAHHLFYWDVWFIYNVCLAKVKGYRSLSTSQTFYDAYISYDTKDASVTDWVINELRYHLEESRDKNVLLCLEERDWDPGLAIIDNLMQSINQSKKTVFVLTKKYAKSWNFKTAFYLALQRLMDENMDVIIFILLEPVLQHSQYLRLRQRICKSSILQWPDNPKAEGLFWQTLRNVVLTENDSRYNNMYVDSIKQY
Put plainly: Antagonist activity at TLR8 in human PBMC cells […] assessed as reduction in IL-6 level measured after 20 hrs by AlphaLISA assay. Type of series: cell-based.

Series [5] is described as follows: Metabolic stability in rat liver microsomes assessed as intrinsic clearance. To be noted: read-out: CLH. Type of series: ADME, Microsome.
The target of series [6] is Voltage-gated inwardly rectifying potassium channel KCNH2 (Homo sapiens, UniProt Q12809). Kind of series: Displacement of [3H]-dofetilite from human ERG (unknown origin). Type of series: toxicity.
Voltage-gated inwardly rectifying potassium channel KCNH2, sequence (Q12809 whole entry): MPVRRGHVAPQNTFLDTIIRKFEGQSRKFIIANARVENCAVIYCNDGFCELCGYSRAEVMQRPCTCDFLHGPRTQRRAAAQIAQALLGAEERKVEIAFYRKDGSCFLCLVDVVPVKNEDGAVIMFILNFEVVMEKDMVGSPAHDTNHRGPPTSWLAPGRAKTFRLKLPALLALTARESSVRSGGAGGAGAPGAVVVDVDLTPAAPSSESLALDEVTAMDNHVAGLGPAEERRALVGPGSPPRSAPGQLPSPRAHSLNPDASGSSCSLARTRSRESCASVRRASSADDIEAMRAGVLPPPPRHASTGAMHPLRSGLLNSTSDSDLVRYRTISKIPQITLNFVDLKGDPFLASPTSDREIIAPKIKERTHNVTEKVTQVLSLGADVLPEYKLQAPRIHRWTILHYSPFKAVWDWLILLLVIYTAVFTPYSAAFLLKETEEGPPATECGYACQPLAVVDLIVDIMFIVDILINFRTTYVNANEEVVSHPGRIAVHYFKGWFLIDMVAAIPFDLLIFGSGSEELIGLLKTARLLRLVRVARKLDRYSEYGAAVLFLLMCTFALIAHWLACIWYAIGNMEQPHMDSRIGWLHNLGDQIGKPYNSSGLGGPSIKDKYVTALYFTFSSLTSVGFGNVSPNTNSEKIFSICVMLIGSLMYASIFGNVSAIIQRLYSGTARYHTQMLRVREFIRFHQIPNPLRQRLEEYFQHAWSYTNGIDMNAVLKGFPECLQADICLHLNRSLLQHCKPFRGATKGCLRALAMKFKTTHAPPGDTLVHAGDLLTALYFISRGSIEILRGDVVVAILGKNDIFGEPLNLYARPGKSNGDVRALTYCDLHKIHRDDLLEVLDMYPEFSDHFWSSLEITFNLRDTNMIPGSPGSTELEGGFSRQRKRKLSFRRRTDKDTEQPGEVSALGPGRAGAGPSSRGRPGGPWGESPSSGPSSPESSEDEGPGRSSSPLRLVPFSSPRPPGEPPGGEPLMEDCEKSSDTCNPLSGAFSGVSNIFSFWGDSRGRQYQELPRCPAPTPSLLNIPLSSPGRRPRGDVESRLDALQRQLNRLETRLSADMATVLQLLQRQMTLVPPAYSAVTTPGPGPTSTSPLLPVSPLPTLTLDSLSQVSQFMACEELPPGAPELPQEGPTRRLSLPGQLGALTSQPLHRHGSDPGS
A short description of series [7]: Permeability of the compound by PAMPA. Type of series: ADME.
A short description of series [8]: Metabolic stability in human liver microsomes assessed as intrinsic clearance. Type of series: ADME, Microsome. The following applies: read-out: CLH.
In series [9] the target is T2, Cytochrome P450 3A4. Kind of series: Inhibition of CYP3A4 (unknown origin). Type of series: ADME.

This note sets out measurements from ChEMBL document CHEMBL5360657, “Discovery of the TLR7/8 Antagonist MHV370 for Treatment of Systemic Autoimmune Diseases” (ACS Med Chem Lett, 2023).

Take `CCNCC(=O)NC12CCC(Cn3nc(C)c4c3CCN(c3cc(C)nc5c3cnn5C)C4)(CC1)CC2`: the IC50 on Toll-like receptor 9 was 0.81 µM; at Toll-like receptor 8 it was 0.044 µM; in series [6] it was over 30 µM; on Cytochrome P450 3A4 [9], over 50 µM. The microsomal CLint in [1] is 96 µL/min/mg; in series [5], under 15 µL/min/mg; in [8], 35 µL/min/mg. Also, in series [2], the mean residence time MRT was determined as 2.4 h. Moreover, on Cytochrome P450 3A4 [3], the Kobs is 0.01 min⁻¹. The compound further showed an AUC in series [4] of 9.28 µM·h. In addition, the “log(permeability)” value in series [7] was -5.3.
Consider `Cc1cc(N2CCc3c(c(C)nn3CC34CCC(N)(CC3)CC4)C2)c2cnn(C)c2n1`, for which the half-inhibitory concentration (IC50) is 0.58 µM on Toll-like receptor 9, 0.21 µM at Toll-like receptor 8, 29 µM in [6] and over 50 µM against Cytochrome P450 3A4 [9]. The results for the microsomal CLint in [1], in [5] and in series [8] were 15 µL/min/mg, 36 µL/min/mg and 19 µL/min/mg, respectively. The Kobs at Cytochrome P450 3A4 [3] stood at 0.002 min⁻¹. Besides, in [7], the “log(permeability)” value was -5.1.
On to `Cc1cc(N2CCc3c(c(C)nn3CC34CCC(NC(=O)[C@@H]5COCCN5)(CC3)CC4)C2)c2cnn(C)c2n1` [MHV-370], for which the concentration for half-maximal inhibition (IC50) at Toll-like receptor 9 is 1 µM; at Toll-like receptor 8, 0.068 µM; in series [6], over 30 µM; on Cytochrome P450 3A4 [9], over 50 µM. Besides, the microsomal CLint worked out at 52 µL/min/mg in series [1], 17 µL/min/mg in series [5] and 19 µL/min/mg in series [8]. Besides, in series [2], the mean residence time MRT came out at 1 h. Besides, the Kobs at Cytochrome P450 3A4 [3] came to 0.006 min⁻¹. This compound also gave an AUC in series [4] of 5.67 µM·h. Further, the “log(permeability)” value in series [7] was -5.2.
